Data from patent publication US20030215878A1, “Novel G protein-coupled purinergic receptor, GAVE17” (priority 2002, published 2003).

Legend:
[1] = biological target: T1, GAVE17 (Homo sapiens, UniProt Q9BPV8); experiment: Nucleotide ligand activation of and affinity for GAVE17 in transformed NIH 3T3 cells; format: cell-based; set-up: expressed in transfected cells; host or cells: NIH 3T3; conditions: for Kd: transformed NIH 3T3 cells
T1 sequence (Q9BPV8 1-333 isoform Q9BPV8-2): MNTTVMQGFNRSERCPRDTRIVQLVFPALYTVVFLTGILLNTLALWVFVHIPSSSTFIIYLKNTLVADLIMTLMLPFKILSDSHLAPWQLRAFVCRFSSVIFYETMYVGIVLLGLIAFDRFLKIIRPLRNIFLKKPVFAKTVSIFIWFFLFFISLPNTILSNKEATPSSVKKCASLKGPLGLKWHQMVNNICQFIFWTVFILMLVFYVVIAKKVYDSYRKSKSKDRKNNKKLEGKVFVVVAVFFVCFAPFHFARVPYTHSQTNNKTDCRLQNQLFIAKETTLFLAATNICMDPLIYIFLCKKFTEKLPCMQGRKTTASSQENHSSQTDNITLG

[2] = biological target: T1, GAVE17; experiment: Agonist assay utilizing FLIPR, NIH 3T3 cell line transfected with hGAVE17 (Ca2+ fluorescence); format: cell-based; set-up: host or cells: Gα16-coupled NIH 3T3; conditions: NIH313 cell line transfected with PEAK8 expression vector comprising SEQ ID NO:1; FIGS. 3a-d
Description: To screen for agonists of human GAVE17, hGAVE17 is coupled artificially to a Gq mechanism. Activation of the Gq mechanism stimulates the release of Ca^2+ from sarcoplasmic reticulum vesicles within the cell. The Ca^2+ is released into the cytoplasm where it can be detected using Ca^2+ chelating dyes. A Fluorometric Imaging Plate Reader or FLIPR® apparatus (Molecular Devices) is used to monitor any resulting changes in fluorescence. The activity of an agonist is reflected by an increase in fluorescence.
In a particular example, NIH 3T3 cells expressing hGAVE17 are pre-engineered to express an indiscriminate form of Gq protein (Gα16). To prepare such cells, Gα16-coupled NIH 3T3 cells are obtained commercially (Molecular Devices LIVEWARE™ cells, Catalog No. RD-HGA16) and the protocol in Example 2 followed to facilitate expression of hGAVE17 in those cells.
The cells are maintained in log phase of growth at 37° C. and 5% CO2 in F12 Ham's media (Gibco/BRL, Catalog No. 11765-054) containing 10% fetal bovine serum, 100 lU/ml penicillin (Gibco/BRL, Catalog No. 15140-148), 100 μg/ml streptomycin (Catalog No. 15140-148, Gibco/BRL), 400 μg/ml genetecin (G418) (Gibco/BRL, Catalog No. 10131-035) and 200 μg/ml zeocin (Invitrogen, Catalog No. R250-05). One day prior to an assay, 12,500 cells/well of the NIH 3T3 cells are plated onto 384-well clear-bottomed assay plates with a well volume of 50 μl (Greiner/Marsh, Catalog No. N58102) using a 96/384 Multidrop device (Labsystems, Type 832). The cells are incubated at 37° C. in a humidified 5% CO2 incubator (Forma Scientific CO2 water-jacketed incubator Model 3110).
The following stock solutions are prepared: a 1 M stock solution of Hepes (pH 7.5) (Gibco/BRL, Catalog No. 15630-080); a 250 mM stock solution of probenicid (Sigma, Catalog No. P8761) made in 1 N NaOH; and a 1 mM stock solution of Fluo 4-AM Dye (Molecular Probes, Catalog No. F1 4202) made in DMSO (Sigma D2650). Reaction buffer is prepared with 1000 ml Hank's balanced salt solution (Fisher/Mediatech, Catalog No. MT21023), 20 ml of the 1 M Hepes stock solution and 10 ml of the 250 mM probenicid stock solution. […]
A compound library containing possible agonists such as various purine derivatives or purine mimetics is tested at a concentration of 10 μM in physiological salt buffer. Changes in fluorescence are measured for 10 seconds prior to compound addition. After the addition of the compound, fluorescence is measured every second for the first minute followed by exposures taken every six seconds for a total experimental analysis time of three minutes. […]

**Q.** What does the source list for `Nc1nc2c(ncn2[C@@H]2O[C@H](COP(=O)(O)OP(=O)(O)O)[C@@H](O)[C@H]2O)c(=O)[nH]1` [GDP]?
**A.** activation of GAVE17 [1]: activate; Kd [1]: 65 µM

**Q.** For `O=c1ccn([C@@H]2O[C@H](COP(=O)(O)OP(=O)(O)OP(=O)(O)O)[C@@H](O)[C@H]2O)c(=O)[nH]1` [UTP], which “agonist activity (FLIPR units vs log molar concentration)” value [2] is on record?
**A.** Its value is “agonist activity”.

**Q.** What about the “activation of GAVE17” value [1] of the same molecule?
**A.** The value was “activate”.

**Q.** And the Kd [1]?
**A.** Its Kd is 6.9 µM.

**Q.** What does the source list for `O=c1ccn([C@@H]2O[C@H](COP(=O)(O)OP(=O)(O)O)[C@@H](O)[C@H]2O)c(=O)[nH]1` [UDP]?
**A.** agonist activity (FLIPR units vs log molar concentration) [2]: agonist activity; activation of GAVE17 [1]: activate; Kd [1]: 10 µM

**Q.** `Nc1ncnc2c1ncn2[C@@H]1O[C@H](COP(=O)(O)OP(=O)(O)OP(=O)(O)O)[C@@H](O)[C@H]1O` [ATP] was tested. Which “agonist activity (FLIPR units vs log molar concentration)” value [2] did it give?
**A.** Its value is “agonist activity”.

**Q.** What about the “activation of GAVE17” value [1] of the same molecule?
**A.** The value was “activate”.

**Q.** What about the Kd [1] of the same molecule?
**A.** Its Kd is 0.8 µM.

**Q.** How did the “agonist activity (FLIPR units vs log molar concentration)” value [2] turn out when `Nc1ncnc2c1ncn2[C@@H]1O[C@H](COP(=O)(O)OP(=O)(O)O)[C@@H](O)[C@H]1O` [ADP] was run?
**A.** Its value is “agonist activity”.

**Q.** What about the “activation of GAVE17” value [1] of the same molecule?
**A.** The value was “activate”.

**Q.** What about the Kd [1] of the same molecule?
**A.** Its Kd is 26 µM.
